# Where two headings read alike, the source gives them in different places.
# Legend:
# [1] = system: carbonyl reductases in HLcy; assay: Inhibition of carbonyl reduction of F18 (formation of M3-1 and M3-2) by chemical inhibitors in HLcy; format: in vitro ADME, human; conditions: F18 10 μM, 10 min
# Procedure: F18 (10 μM) was incubated with HLMs (0.5 mg/mL) and the NADPH-generating system for 30 min or with HLcy and a cofactor (NADPH or NADH) for 10 min in the presence of chemical inhibitors under the above-described conditions. Control incubations using the vehicles but not the chemical inhibitors were also performed. The formation of M3-1 and M3-2 was quantified by LC-MS/MS.
# The amounts of F18, M1, M2-9, M3-1, M3-2, M5-2, M5-3, M5-4, and M5-5 in the incubations were simultaneously quantified with the LC-MS/MS system. […] The sheath gas, auxiliary gas, spray voltage and tube lens parameters were the same as those for the metabolic profiling studies.
# CYP2C8 = system: CYP2C8; design: method as in FDA Drug Development and Drug Interactions; conditions: ref FDA Drug Development and Drug Interactions, cited from earlier work; for Ki: read-out: inhibitor Ki, CYP2C8
# CYP2A6 = conditions: cited from earlier work
# CYP2C9 = conditions: cited from earlier work
# human liver cytosol = assay: Incubation of F18 with human liver cytosol, metabolite profiling; format: in vitro ADME; design: key: +: Metabolite detected; −: metabolite not detected; conditions: F18 50 μM, 1 h
# Procedure: (§1) A stock solution of F18 (5 mM) was prepared in methanol. F18 (50 μM) was incubated with RLMs/DLMs/MLMs/HLMs and HLcy (0.5 mg protein/mL) in 50 mM Tris-HCl buffer containing 5 mM MgCl2 (pH 7.4) in a final volume of 200 μL. The final concentration of methanol in the incubation system was 1% (v/v). After 3 min of preincubation at 37°C, the reactions were initiated by the addition of NADPH-regenerating system (10-mM β-NADP, 100-mM 6-G-P and 10-U/mL 6-G-P-DH) or NADH. After incubation for 1 h, the reactions were terminated by the addition of two volumes of ice-cold acetonitrile. Samples without NADPH or NADH were included as controls. The incubation mixture was vortexed and centrifuged at 13,300 × g for 5 min. A 10 μL aliquot of the supernatant was injected into an LC-tandem mass spectrometer (LC-MS/MS) for analysis.
# (§2) Metabolic profiling studies were performed with a Finnigan TSQ Quantum MS instrument with an electrospray ionization probe and a Finnigan SURVEYOR HPLC system (Thermo Finnigan, San Jose, CA, USA). HPLC was performed with a Zorbax SB-C18 column (2.1 × 100 mm, 3.5 μm, Agilent Corporation, CA, USA) with a column temperature of 35°C and a flow rate of 200 μL/min. F18 and its metabolites were eluted using a linear gradient method with a mobile phase consisting of solvent A (water with 0.1% formic acid) and solvent B (acetonitrile with 0.1% formic acid). […] The samples were analyzed in the positive-ionization mode, and the TSQ capillary temperature was set to 350°C. Nitrogen was used as both the sheath gas and the auxiliary gas and was delivered at 30 psi and 15 psi, respectively. The spray voltage and tube lens were set to 3,800 V and 123 V, respectively. The full-width half maximum (FWHM) was set to 0.7. MS data were acquired in the selective ion-recording mode or by collecting full scans from 200 to 600 m/z at 1 scan/s. The mass spectrometer and HPLC system were operated using Xcalibur 2.0.7 software.
# monkey liver microsomes = assay: Incubation of F18 with monkey liver microsomes, metabolite profiling; format: in vitro ADME; design: key: +: Metabolite detected; −: metabolite not detected; conditions: F18 50 μM, 1 h
# Procedure: as §1, §2
# dog liver microsomes = assay: Incubation of F18 with dog liver microsomes, metabolite profiling; format: in vitro ADME, beagle dog; design: key: +: Metabolite detected; −: metabolite not detected; conditions: F18 50 μM, 1 h
# Procedure: as §1, §2
# human liver microsomes = assay: Incubation of F18 with human liver microsomes, metabolite profiling by LC-MS/MS; format: in vitro ADME; design: key: +: Metabolite detected; −: metabolite not detected; conditions: F18 50 μM, 1 h
# Procedure: as §1, §2
# rat liver microsomes = assay: Incubation of F18 with rat liver microsomes, metabolite profiling; format: in vitro ADME; design: key: +: Metabolite detected; −: metabolite not detected; conditions: F18 50 μM, 1 h
# Procedure: as §1, §2
# CYP2B6 = conditions: cited from earlier work
# VSV-G/HIV-1 viruses = assay: microbe, parasite or virus in culture; format: cell-based; conditions: Human immunodeficiency virus 1, HEK-293T, 48 h, read-out: IC50, inhibition of HIV-1 replication
# [2] = HLcy, cofactor not given, high concentration 50 μM
# [3] = HLcy, cofactor not given, low concentration 10 μM
# [4] = read-out: inhibitor Ki, CYP2A6, ref FDA Drug Development and Drug Interactions
# [5] = read-out: inhibitor Ki, CYP2C9, ref FDA Drug Development and Drug Interactions
# [6] = HLcy with NADH, high concentration: dicumarol 50 μM, 4-methylpyrazole 500 μM
# [7] = HLcy with NADH, low concentration: dicumarol 10 μM, 4-methylpyrazole 100 μM
# [8] = HLcy with NADPH, high concentration: dicumarol 50 μM, 4-methylpyrazole 500 μM
# [9] = HLcy with NADPH, low concentration: dicumarol 10 μM, 4-methylpyrazole 100 μM
# [10] = read-out: inhibitor Ki, CYP2B6, ref FDA Drug Development and Drug Interactions
molecule,measurement,setting,value
"CCC1(c2ccccc2)C(=O)NC(=O)NC1=O [Phenobarbital, phenobarbital]","Percentage of inhibition of the formation of M3-1, H",[1]; [2],N.I.
same,"Percentage of inhibition of the formation of M3-2, H",[1]; [2],N.I.
same,"Percentage of inhibition of the formation of M3-1, L",[1]; [3],N.I.
same,"Percentage of inhibition of the formation of M3-2, L",[1]; [3],N.I.
COc1cc(Cc2cnc(N)nc2N)cc(OC)c1OC [Trimethoprim],Ki,CYP2C8,32000 nM
O=C(O)Cc1ccccc1Nc1c(Cl)cccc1Cl [Diclofenac],Km,CYP2C9,3.4 to 52 µM
OC(Cn1cncn1)(Cn1cncn1)c1ccc(F)cc1F [Fluconazole],Ki,CYP2C9; [5],7000 nM
Cc1cn[nH]c1 [4-methylpyrazole],"Percentage of inhibition of the formation of M3-1, H",[1]; [6],N.I.
same,"Percentage of inhibition of the formation of M3-2, H",[1]; [6],N.I.
same,"Percentage of inhibition of the formation of M3-1, L",[1]; [7],N.I.
same,"Percentage of inhibition of the formation of M3-2, L",[1]; [7],N.I.
same,"Percentage of inhibition of the formation of M3-1, H",[1]; [8],N.I.
same,"Percentage of inhibition of the formation of M3-2, H",[1]; [8],N.I.
same,"Percentage of inhibition of the formation of M3-1, L",[1]; [9],N.I.
same,"Percentage of inhibition of the formation of M3-2, L",[1]; [9],N.I.
"O=c1oc2ccccc2c(O)c1Cc1c(O)c2ccccc2oc1=O [Dicumarol, dicumarol]","Percentage of inhibition of the formation of M3-1, H",[1]; [6],51.5%
same,"Percentage of inhibition of the formation of M3-2, H",[1]; [6],49.6%
same,"Percentage of inhibition of the formation of M3-1, L",[1]; [7],16.0%
same,"Percentage of inhibition of the formation of M3-2, L",[1]; [7],6.7%
same,"Percentage of inhibition of the formation of M3-1, H",[1]; [8],70.6%
same,"Percentage of inhibition of the formation of M3-2, H",[1]; [8],82.2%
same,"Percentage of inhibition of the formation of M3-1, L",[1]; [9],52.3%
same,"Percentage of inhibition of the formation of M3-2, L",[1]; [9],67.7%
CC(O)Cc1cc(=O)oc2c3c(c4c(c12)OC(C)(C)C=C4)OC(CCl)CC3=O (stereo not drawn) [Metabolite M5-2],F18 metabolite detected in HLcy with NADH,human liver cytosol,−
same,F18 metabolite detected in HLcy with NADPH,human liver cytosol,−
same,F18 metabolite detected in MLM,monkey liver microsomes,+
same,F18 metabolite detected in DLM,dog liver microsomes,+
same,F18 metabolite detected in HLM,human liver microsomes,+
same,F18 metabolite detected in RLM,rat liver microsomes,+
CC(O)Cc1cc(=O)oc2c3c(c4c(c12)OC(C)(C)C=C4)OC(CCl)CC3=O (stereo not drawn) [Metabolite M5-3],F18 metabolite detected in HLcy with NADH,human liver cytosol,−
same,F18 metabolite detected in HLcy with NADPH,human liver cytosol,−
same,F18 metabolite detected in MLM,monkey liver microsomes,+
same,F18 metabolite detected in DLM,dog liver microsomes,+
same,F18 metabolite detected in HLM,human liver microsomes,+
same,F18 metabolite detected in RLM,rat liver microsomes,+
CCc1ccc(CCOc2ccc(CC3SC(=O)NC3=O)cc2)nc1 (stereo not drawn) [pioglitazone],Ki,CYP2C8,1700 nM
"O=c1c(O)c(-c2ccc(O)c(O)c2)oc2cc(O)cc(O)c12 [Quercetin, quercetin]",Ki,CYP2C8,[…]
same,"Percentage of inhibition of the formation of M3-1, H",[1]; [2],80.4%
same,"Percentage of inhibition of the formation of M3-2, H",[1]; [2],87.0%
same,"Percentage of inhibition of the formation of M3-1, L",[1]; [3],41.5%
same,"Percentage of inhibition of the formation of M3-2, L",[1]; [3],54.6%
CCC(O)c1cc(=O)oc2c3c(c4c(c12)OC(C)(C)C=C4)OC(CCl)CC3=O (stereo not drawn) [Metabolite M5-5],F18 metabolite detected in HLcy with NADH,human liver cytosol,−
same,F18 metabolite detected in HLcy with NADPH,human liver cytosol,−
same,F18 metabolite detected in MLM,monkey liver microsomes,+
same,F18 metabolite detected in DLM,dog liver microsomes,−
same,F18 metabolite detected in HLM,human liver microsomes,+
same,F18 metabolite detected in RLM,rat liver microsomes,+
c1ccc(C2(N3CCCCC3)CCCCC2)cc1 [Phencyclidine],Ki,CYP2B6; [10],10000 nM
medroxyprogesterone,"Percentage of inhibition of the formation of M3-1, H",[1]; [2],24.9%
same,"Percentage of inhibition of the formation of M3-2, H",[1]; [2],38.8%
same,"Percentage of inhibition of the formation of M3-1, L",[1]; [3],24.3%
same,"Percentage of inhibition of the formation of M3-2, L",[1]; [3],35.8%
CNCCC(Oc1ccc(C(F)(F)F)cc1)c1ccccc1 (stereo not drawn) [fluoxetine],Ki,CYP2C9; [5],18000 to 41000 nM
NCCc1c[nH]c2ccccc12 [tr ypta mine],Ki,CYP2A6; [4],1700 nM
"O=C(O)c1ccccc1Nc1cccc(C(F)(F)F)c1 [Flufenamic acid, flufenamic acid]","Percentage of inhibition of the formation of M3-1, H",[1]; [2],87.9%
same,"Percentage of inhibition of the formation of M3-2, H",[1]; [2],94.0%
same,"Percentage of inhibition of the formation of M3-1, L",[1]; [3],82.4%
same,"Percentage of inhibition of the formation of M3-2, L",[1]; [3],88.5%
"N[C@@H]1C[C@H]1c1ccccc1 (racemic) [Tranylcypromine, tranylcypromine]",Ki,CYP2A6,20 to 200 nM
CC(NC(C)(C)C)C(=O)c1cccc(Cl)c1 (stereo not drawn) [bupropion],Km,"CYP2B6; read-out: substrate Km, CYP2B6, bupropion-hydroxylation, ref FDA Drug Development and Drug Interactions",67 to 168 µM
COC(=O)[C@H](c1ccccc1Cl)N1CCc2sccc2C1 [Clopidogrel],Ki,CYP2B6,500 nM
CC=Cc1cc(=O)oc2c3c(c4c(c12)OC(C)(C)C=C4)OC(CCl)CC3=O (stereo not drawn) [Metabolite M2-9],F18 metabolite detected in HLcy with NADH,human liver cytosol,−
same,F18 metabolite detected in HLcy with NADPH,human liver cytosol,−
same,F18 metabolite detected in MLM,monkey liver microsomes,−
same,F18 metabolite detected in DLM,dog liver microsomes,−
same,F18 metabolite detected in HLM,human liver microsomes,+
same,IC50,VSV-G/HIV-1 viruses,110 nM
same,F18 metabolite detected in RLM,rat liver microsomes,+
CCC(O)c1cc(=O)oc2c3c(c4c(c12)OC(C)(C)C=C4)OC(CCl)CC3=O (stereo not drawn) [Metabolite M5-4],F18 metabolite detected in HLcy with NADH,human liver cytosol,−
same,F18 metabolite detected in HLcy with NADPH,human liver cytosol,−
same,F18 metabolite detected in MLM,monkey liver microsomes,+
same,F18 metabolite detected in DLM,dog liver microsomes,−
same,F18 metabolite detected in HLM,human liver microsomes,+
same,F18 metabolite detected in RLM,rat liver microsomes,+
"C[C@H](CCC(=O)O)[C@H]1CC[C@H]2[C@@H]3[C@H](O)C[C@@H]4C[C@H](O)CC[C@]4(C)[C@H]3CC[C@]12C [Chenodeoxycholic, chenodeoxycholic acid]","Percentage of inhibition of the formation of M3-1, H",[1]; [2],69.3%
same,"Percentage of inhibition of the formation of M3-2, H",[1]; [2],81.2%
same,"Percentage of inhibition of the formation of M3-1, L",[1]; [3],50.8%
same,"Percentage of inhibition of the formation of M3-2, L",[1]; [3],62.3%
CC(=O)O[C@H]1C(=O)[C@@]2(C)[C@H]([C@H](OC(=O)c3ccccc3)[C@]3(O)C[C@H](OC(=O)[C@H](O)[C@@H](NC(=O)c4ccccc4)c4ccccc4)C(C)=C1C3(C)C)[C@]1(OC(C)=O)CO[C@@H]1C[C@@H]2O [Taxol],Km,"CYP2C8; Taxol 6-hydroxylation, N-DesethylAmodiaquine, read-out: substrate Km, CYP2C8",5.4 to 19 µM
"CC1=CC(=O)c2ccccc2C1=O [Menadione, menadione]","Percentage of inhibition of the formation of M3-1, H",[1]; [2],45.9%
same,"Percentage of inhibition of the formation of M3-2, H",[1]; [2],58.4%
same,"Percentage of inhibition of the formation of M3-1, L",[1]; [3],7.7%
same,"Percentage of inhibition of the formation of M3-2, L",[1]; [3],20.1%
